A word on the EC50: it is the midpoint of the concentration-response curve. High values mean a less potent agent, low ones a more potent agent.

Results on 15 molecules are retold here after ChEMBL document CHEMBL4020806, “Evaluation of the antiprotozoan properties of 5'-norcarbocyclic pyrimidine nucleosides” (Bioorg Med Chem Lett, 2017).

Common to all, as to format: functional
Test [1] concerns Trypanosoma brucei. The test can be described thus: Antiprotozoal activity against PYR6-5 deficient bloodstream form of 5-FU hypersensitive Trypanosoma brucei after 16 hrs by Alamar Blue assay.
In test [2] the test system is Leishmania mexicana. The test can be described thus: Antileishmanial activity against 5FU resistant Leishmania mexicana after 16 hrs by Alamar Blue assay.
Test [3] has as its system Leishmania mexicana. The test can be described thus: Resistance factor, ratio of EC50 for 5FU resistant Leishmania mexicana to EC50 for wild type Leishmania mexicana.
Test [4] concerns Trypanosoma brucei. The test can be described thus: Antiprotozoal activity against bloodstream form of wild type Trypanosoma brucei after 16 hrs by Alamar Blue assay. For orientation: Alamar Blue is a resazurin reagent that responds to reducing activity.
Test [5] deals with Trypanosoma brucei. The test can be described thus: Resistance factor, ratio of EC50 for PYR6-5 deficient bloodstream form of 5-FU hypersensitive Trypanosoma brucei to EC50 for wild type Trypanosoma brucei.
The test system of test [6] is Trypanosoma brucei. Description: Antiprotozoal activity against bloodstream form of 5FU resistant Trypanosoma brucei after 16 hrs by Alamar Blue assay.
The subject of test [7] is Leishmania mexicana. The test can be described thus: Antileishmanial activity against wild type Leishmania mexicana after 16 hrs by Alamar Blue assay.
For test [8], the system named is Trypanosoma brucei. Description: Resistance factor, ratio of EC50 for 5FU resistant Trypanosoma brucei to EC50 for wild type Trypanosoma brucei.
Test [9] concerns Trypanosoma brucei. Description: Antiprotozoal activity against bloodstream form of multi-drug resistant Trypanosoma brucei B48 after 16 hrs by Alamar Blue assay. The settings on record: B48, 16 h.
Test [10] relates to Trypanosoma brucei. The test can be described thus: Resistance factor, ratio of EC50 for multi-drug resistant Trypanosoma brucei B48 to EC50 for wild type Trypanosoma brucei.

For the molecule `Cc1cc(C)cc(Cn2c(=O)cc(C)n([C@H]3C=C[C@@H](OC(=O)c4ccccc4)C3)c2=O)c1`, the concentration for a half-maximal effect (EC50) came out at 15.6 µM in [1]; 28.5 µM in [2]; 15.1 µM in [4]; 14.3 µM in test [6]; 25.6 µM in test [7]; 14 µM in test [9]. For the same molecule, the “Ratio EC50” value in test [3] is 1.11; in [5], 1.03; in test [8], 0.95; in test [10], 0.9.
For `N=C(N)c1ccc(OCCCCCOc2ccc(C(=N)N)cc2)cc1` [PENTAMIDINE], the concentration giving a half-maximal response (EC50) in test [1] amounted to 0.0051 µM; in test [2], 1.63 µM; in test [4], 0.0057 µM; in test [6], 0.0061 µM; in [7], 1.9 µM; in test [9] it was 0.938 µM. For the same molecule, the “Ratio EC50” value turned out to be 0.86 in test [3], 0.89 in test [5], 1.06 in [8] and 164 in [10].
For `Cc1cc(C)cc(C(=O)O[C@@H]2C=C[C@H](n3ccc(=O)n(Cc4ccccc4)c3=O)C2)c1`, the EC50 in [1] is 11.1 µM; in test [2], 25.1 µM; in test [4], 8.6 µM; in test [6], 8.7 µM; in test [7], 31.8 µM; in [9], 8.7 µM. Also, the “Ratio EC50” value is on record as 0.79 in [3], 1.29 in test [5], 1.01 in [8] and 1 in test [10].
As to `Cc1cc(C)cc(Cn2c(=O)ccn([C@H]3C=C[C@@H](OC(=O)c4ccccc4)C3)c2=O)c1`, the EC50 in test [1] is 15.9 µM; in test [2], 38.6 µM; in test [4], 15.2 µM; in test [6], 12.4 µM; in [7] it was 41.3 µM; in [9] it was 15.7 µM. Besides, the “Ratio EC50” value in test [3] is 0.94; in [5], 1.05; in test [8], 0.82; in test [10] it was 1.
Take `O=C(O[C@@H]1C=C[C@H](n2ccc(=O)[nH]c2=O)C1)c1cc(Cl)cc(Cl)c1`: the EC50 was 31.6 µM in test [1]; 89.4 µM in test [2]; 33.2 µM in test [4]; 26.7 µM in test [6]; 81.5 µM in test [7]; 34.8 µM in [9]. The “Ratio EC50” value in test [3] turned out to be 1.1; in test [5], 0.95; in test [8] it was 0.8; in test [10], 1.
As to `Cc1cc(C)cc(C(=O)O[C@@H]2C=C[C@H](n3ccc(=O)n(C(=O)c4cc(C)cc(C)c4)c3=O)C2)c1`, the EC50 in [1] came out at 24.4 µM; in test [2], 23.6 µM; in [4] it was 23.8 µM; in test [6], 20.2 µM; in [7], 38.9 µM; in test [9], 21.9 µM. Moreover, the “Ratio EC50” value in test [3] turned out to be 0.61; in test [5], 1.03; in [8], 0.85; in [10], 0.9.
Regarding `Cc1ccc(Nc2cn([C@H]3C=C[C@@H](O)C3)c(=O)[nH]c2=O)cc1`, the EC50 worked out at 24.7 µM in test [1]; 96.7 µM in [2]; 31.7 µM in [4]; 17.1 µM in test [6]; 94.6 µM in [7]; 31 µM in test [9]. Also, the “Ratio EC50” value came out at 1.02 in test [3], 0.78 in test [5], 0.54 in test [8] and 1 in test [10].
With `Cc1cc(=O)[nH]c(=O)n1[C@H]1C=C[C@@H](OC(=O)c2ccccc2)C1`, the EC50 in [1] was 34.3 µM; in test [2], 94.9 µM; in test [4], 37.6 µM; in [6], 32 µM; in test [7] it was 94.1 µM; in test [9] it was 38.1 µM. Further, the “Ratio EC50” value came out at 1.01 in test [3], 0.91 in [5], 0.85 in test [8] and 1 in test [10].
For the molecule `O=c1[nH]c(=O)n([C@H]2C=C[C@@H](O)C2)cc1Br`, the EC50 was 35.7 µM in test [1]; 97.3 µM in [2]; 37.3 µM in [4]; 32.4 µM in test [6]; 97.4 µM in test [7]; 36.7 µM in [9]. Besides, the “Ratio EC50” value in test [3] worked out at 1; in test [5], 0.96; in test [8] it was 0.87; in test [10] it was 1.
Consider `O=c1[nH]c(=O)n([C@H]2C=C[C@@H](O)C2)cc1Nc1ccccc1`, for which the EC50 in test [1] turned out to be 21.4 µM; in test [2], 95.3 µM; in test [4] it was 28.1 µM; in [6], 13.8 µM; in test [7], 94.1 µM; in test [9] it was 30 µM. For the same molecule, the “Ratio EC50” value is given as 1.01 in test [3], 0.76 in test [5], 0.49 in test [8] and 1.1 in test [10].
Consider `O=c1ccn([C@H]2C=C[C@@H](O)C2)c(=O)[nH]1`, for which the EC50 stood at 34.6 µM in test [1]; 97.9 µM in test [2]; 37.6 µM in [4]; 31.9 µM in test [6]; 97 µM in test [7]; 37.9 µM in test [9]. Further, the “Ratio EC50” value in [3] is on record as 1.01; in test [5], 0.92; in test [8], 0.85; in test [10] it was 1.
Regarding `O=C(O[C@@H]1C=C[C@H](n2cc(Br)c(=O)[nH]c2=O)C1)c1ccccc1`, the EC50 in test [1] worked out at 25.3 µM; in test [2], 91.9 µM; in test [4], 29.8 µM; in [6], 17.7 µM; in [7] it was 90.4 µM; in test [9], 23.9 µM. The “Ratio EC50” value in test [3] stood at 1.02; in test [5], 0.85; in test [8] it was 0.59; in test [10], 0.8.
Consider `O=c1[nH]c(=O)n([C@H]2C=C[C@@H](O)C2)cc1I`, for which the 50% effective concentration (EC50) in [1] was found to be 33.5 µM; in [2] it was 95.6 µM; in [4], 35.3 µM; in [6], 30.8 µM; in test [7], 95.2 µM; in test [9], 36.2 µM. Besides, the “Ratio EC50” value worked out at 1 in test [3], 0.95 in test [5], 0.87 in test [8] and 1 in [10].
Turning to `O=C(O[C@@H]1C=C[C@H](n2ccc(=O)n(C(=O)c3cc(Cl)cc(Cl)c3)c2=O)C1)c1cc(Cl)cc(Cl)c1`, the half-maximal effective concentration (EC50) in test [1] amounted to 29.5 µM; in [2], 91.4 µM; in test [4], 31.8 µM; in test [6] it was 25 µM; in test [7], 89.1 µM; in [9], 33.9 µM. In addition, the “Ratio EC50” value in [3] amounted to 1.03; in test [5], 0.93; in test [8] it was 0.79; in test [10], 1.1.
With `O=C(O[C@@H]1C=C[C@H](n2ccc(=O)[nH]c2=O)C1)c1ccccc1`, the EC50 in test [1] was 35.6 µM; in test [2], 95.7 µM; in test [4], 38.3 µM; in test [6], 32.3 µM; in test [7], 94.8 µM; in [9], 38.1 µM. Moreover, the “Ratio EC50” value was determined as 1.01 in test [3], 0.93 in test [5], 0.84 in test [8] and 1 in test [10].
